Results reported in patent publication US8415469B2, “Compounds and methods for kinase modulation, and indications therefor” (Plexxikon Inc., priority 2005, dated 2013).

What was measured:
Assay type in all cases: biochemical
B-Raf V600E = target: T1, B-Raf V600E (Homo sapiens, UniProt P15056, V600E); assay: AlphaScreen kinase assay, B-Raf V600E; details: read-out: IC50, activity toward kinase B-Raf V600E
T1 construct: P4254. pFastBacBD-CDC37 BRAF D437-K722-X, V600E; His6 with pFastBac HT leader (TEV site) (N); made in house; host or cells: Sf9 (baculovirus; chaperone CDC37 co-expressed)

Stk6 = target: T2, Stk6 (Homo sapiens, UniProt O14965); assay: Z'-Lyte FRET kinase assay (Invitrogen), Stk6; details: read-out: IC50, activity toward kinase Stk6
T2 construct: purchased Invitrogen (Carlsbad, Calif.), screening service
T2 sequence (O14965 1-403): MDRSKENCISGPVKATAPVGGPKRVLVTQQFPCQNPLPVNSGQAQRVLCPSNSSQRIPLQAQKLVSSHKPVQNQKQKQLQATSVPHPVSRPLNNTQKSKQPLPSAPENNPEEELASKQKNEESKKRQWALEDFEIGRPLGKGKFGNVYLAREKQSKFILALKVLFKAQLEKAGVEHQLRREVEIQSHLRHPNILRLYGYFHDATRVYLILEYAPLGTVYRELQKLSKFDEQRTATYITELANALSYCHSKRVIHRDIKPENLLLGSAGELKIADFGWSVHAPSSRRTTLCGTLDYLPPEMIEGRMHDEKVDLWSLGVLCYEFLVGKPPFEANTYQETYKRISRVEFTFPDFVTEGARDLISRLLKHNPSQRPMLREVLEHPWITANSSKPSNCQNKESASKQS

FGFR1 = target: T3, FGFR1 (Homo sapiens, UniProt P11362, C488A/C584S); assay: AlphaScreen kinase assay, FGFR1; details: read-out: IC50, activity toward kinase FGFR
T3 construct: P1351.pET N6 BI-PTP FGFR A458-E765-X C488A, C584S; made in house; host or cells: E. coli (PTP1B co-expressed)

Fms = target: T4, Fms (Homo sapiens, UniProt P07333); assay: AlphaScreen kinase assay, Fms; details: read-out: IC50, activity toward kinase Fms
T4 construct: purchased Upstate Biotechnology

Jnk1 = target: T5, Jnk1 (Homo sapiens, UniProt P45983); assay: AlphaScreen kinase assay, Jnk1; details: read-out: IC50, activity toward kinase Jnk1
T5 construct: purchased Upstate Biotechnology

Kit = target: T6, Kit (Homo sapiens, UniProt P10721); assay: AlphaScreen kinase assay, Kit; details: read-out: IC50, activity toward kinase Kit
T6 construct: P1332.N6 BI PTP KIT M552-K948-X COD; His6 (N); made in house; host or cells: E. coli (PTP1B co-expressed)

c-Raf-1 = target: T7, c-Raf-1 (Homo sapiens, UniProt P04049); assay: AlphaScreen kinase assay, c-Raf-1; details: read-out: IC50, activity toward kinase c-Raf-1
T7 construct: purchased Upstate Biotechnology

B-Raf = target: T8, B-Raf (Homo sapiens, UniProt P15056); assay: AlphaScreen kinase assay, B-Raf; details: read-out: IC50, activity toward kinase B-Raf
T8 construct: purchased Upstate Biotechnology

Src = target: T9, Src (Homo sapiens, UniProt P12931); assay: AlphaScreen kinase assay, Src; details: read-out: IC50, activity toward kinase Src
T9 construct: P1144. pET-N6 BI-PTP SRC V86-L536-X; made in house

Flt1 = target: T10, Flt1 (Homo sapiens, UniProt P17948); assay: AlphaScreen kinase assay, Flt1; details: read-out: IC50, activity toward kinase Flt1
T10 construct: P1826.pETN6 BI-PTP FLT1 M799-D1165-X WT; His6 (N); made in house; host or cells: E. coli (PTP1B co-expressed)
T10 sequence (P17948 with tags, fused parts or gaps): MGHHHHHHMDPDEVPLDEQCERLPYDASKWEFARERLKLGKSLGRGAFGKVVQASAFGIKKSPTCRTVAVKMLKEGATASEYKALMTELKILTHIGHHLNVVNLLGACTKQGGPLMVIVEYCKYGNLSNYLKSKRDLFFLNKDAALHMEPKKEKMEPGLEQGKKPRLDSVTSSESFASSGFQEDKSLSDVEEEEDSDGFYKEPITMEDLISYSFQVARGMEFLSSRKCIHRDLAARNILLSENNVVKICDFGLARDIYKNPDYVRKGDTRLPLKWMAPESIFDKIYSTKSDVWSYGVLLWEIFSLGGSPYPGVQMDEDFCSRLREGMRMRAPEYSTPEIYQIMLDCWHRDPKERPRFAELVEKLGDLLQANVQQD

T1 sequence (P15056 with tags, fused parts or gaps V600E): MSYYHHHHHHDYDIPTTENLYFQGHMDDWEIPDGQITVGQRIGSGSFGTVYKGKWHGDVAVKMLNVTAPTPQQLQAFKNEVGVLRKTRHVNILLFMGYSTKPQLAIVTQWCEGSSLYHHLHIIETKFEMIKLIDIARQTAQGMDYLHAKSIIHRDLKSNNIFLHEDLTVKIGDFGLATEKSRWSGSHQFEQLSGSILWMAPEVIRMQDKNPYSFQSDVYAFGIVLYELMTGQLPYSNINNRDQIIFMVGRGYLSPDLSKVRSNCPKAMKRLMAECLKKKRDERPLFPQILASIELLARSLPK
T5 sequence (P45983 whole entry): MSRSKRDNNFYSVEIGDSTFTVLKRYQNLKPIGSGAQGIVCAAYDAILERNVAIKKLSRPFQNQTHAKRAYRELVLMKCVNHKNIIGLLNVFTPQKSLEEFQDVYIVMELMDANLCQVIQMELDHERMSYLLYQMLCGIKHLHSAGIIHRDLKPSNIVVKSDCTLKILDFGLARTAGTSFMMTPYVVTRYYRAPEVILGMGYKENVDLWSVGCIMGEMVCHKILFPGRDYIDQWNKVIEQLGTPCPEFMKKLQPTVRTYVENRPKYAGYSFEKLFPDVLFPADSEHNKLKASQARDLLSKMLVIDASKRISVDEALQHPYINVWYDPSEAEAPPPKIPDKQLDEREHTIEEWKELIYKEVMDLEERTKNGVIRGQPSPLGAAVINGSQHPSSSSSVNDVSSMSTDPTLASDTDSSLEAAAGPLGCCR
T7 sequence (P04049 whole entry): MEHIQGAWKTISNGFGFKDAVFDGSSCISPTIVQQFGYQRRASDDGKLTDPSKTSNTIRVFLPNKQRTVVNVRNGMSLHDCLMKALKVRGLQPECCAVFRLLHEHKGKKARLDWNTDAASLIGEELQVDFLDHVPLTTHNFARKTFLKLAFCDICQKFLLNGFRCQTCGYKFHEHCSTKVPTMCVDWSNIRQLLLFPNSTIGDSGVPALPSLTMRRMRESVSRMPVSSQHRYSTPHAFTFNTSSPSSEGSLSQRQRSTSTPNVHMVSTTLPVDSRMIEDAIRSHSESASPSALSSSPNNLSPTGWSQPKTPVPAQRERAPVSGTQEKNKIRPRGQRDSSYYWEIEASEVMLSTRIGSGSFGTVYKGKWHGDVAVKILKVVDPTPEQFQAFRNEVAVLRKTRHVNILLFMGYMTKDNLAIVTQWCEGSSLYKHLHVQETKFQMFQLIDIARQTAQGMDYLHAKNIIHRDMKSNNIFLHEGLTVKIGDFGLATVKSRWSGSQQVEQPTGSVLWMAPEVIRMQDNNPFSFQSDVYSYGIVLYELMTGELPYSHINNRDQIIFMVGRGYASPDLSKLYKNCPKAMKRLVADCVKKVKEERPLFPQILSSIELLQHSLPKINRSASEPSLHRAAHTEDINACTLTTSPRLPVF
T9 sequence (P12931 with tags, fused parts or gaps): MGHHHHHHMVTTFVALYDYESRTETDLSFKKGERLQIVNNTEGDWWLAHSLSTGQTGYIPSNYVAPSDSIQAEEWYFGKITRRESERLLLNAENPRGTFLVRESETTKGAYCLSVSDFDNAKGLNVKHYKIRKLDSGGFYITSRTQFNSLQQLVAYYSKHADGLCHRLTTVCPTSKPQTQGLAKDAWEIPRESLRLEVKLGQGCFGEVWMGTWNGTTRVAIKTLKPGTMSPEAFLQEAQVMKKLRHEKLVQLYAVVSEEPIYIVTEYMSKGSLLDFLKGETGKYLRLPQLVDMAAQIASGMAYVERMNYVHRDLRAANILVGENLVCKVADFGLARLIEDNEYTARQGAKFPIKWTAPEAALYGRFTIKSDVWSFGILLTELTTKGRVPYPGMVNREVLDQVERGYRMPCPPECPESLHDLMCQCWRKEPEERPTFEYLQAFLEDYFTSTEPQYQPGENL
T4 sequence (P07333 20-972): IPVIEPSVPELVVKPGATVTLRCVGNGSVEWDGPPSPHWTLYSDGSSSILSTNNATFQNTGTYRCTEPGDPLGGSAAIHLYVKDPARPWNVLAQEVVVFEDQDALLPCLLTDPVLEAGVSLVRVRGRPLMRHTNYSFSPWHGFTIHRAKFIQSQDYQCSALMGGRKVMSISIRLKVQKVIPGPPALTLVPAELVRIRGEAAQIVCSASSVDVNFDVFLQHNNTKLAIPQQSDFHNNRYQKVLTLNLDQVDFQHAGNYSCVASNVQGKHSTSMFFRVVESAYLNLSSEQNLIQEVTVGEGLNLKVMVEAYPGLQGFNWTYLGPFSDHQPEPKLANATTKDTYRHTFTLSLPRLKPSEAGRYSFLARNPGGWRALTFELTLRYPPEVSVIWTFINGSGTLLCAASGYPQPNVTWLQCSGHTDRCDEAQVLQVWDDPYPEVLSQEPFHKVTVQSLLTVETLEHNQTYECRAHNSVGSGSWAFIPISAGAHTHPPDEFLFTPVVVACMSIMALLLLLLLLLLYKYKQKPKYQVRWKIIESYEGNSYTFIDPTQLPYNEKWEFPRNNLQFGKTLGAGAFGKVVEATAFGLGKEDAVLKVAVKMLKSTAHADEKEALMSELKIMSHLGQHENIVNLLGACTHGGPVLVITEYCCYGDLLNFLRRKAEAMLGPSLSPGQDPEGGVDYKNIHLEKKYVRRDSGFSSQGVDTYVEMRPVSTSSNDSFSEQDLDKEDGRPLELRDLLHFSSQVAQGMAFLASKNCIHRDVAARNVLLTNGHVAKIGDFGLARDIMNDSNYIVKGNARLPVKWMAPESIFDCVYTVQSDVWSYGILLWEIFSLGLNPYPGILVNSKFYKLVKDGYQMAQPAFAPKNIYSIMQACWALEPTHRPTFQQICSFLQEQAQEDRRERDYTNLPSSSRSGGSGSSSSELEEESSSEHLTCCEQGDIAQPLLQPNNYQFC
T6 sequence (P10721 with tags, fused parts or gaps): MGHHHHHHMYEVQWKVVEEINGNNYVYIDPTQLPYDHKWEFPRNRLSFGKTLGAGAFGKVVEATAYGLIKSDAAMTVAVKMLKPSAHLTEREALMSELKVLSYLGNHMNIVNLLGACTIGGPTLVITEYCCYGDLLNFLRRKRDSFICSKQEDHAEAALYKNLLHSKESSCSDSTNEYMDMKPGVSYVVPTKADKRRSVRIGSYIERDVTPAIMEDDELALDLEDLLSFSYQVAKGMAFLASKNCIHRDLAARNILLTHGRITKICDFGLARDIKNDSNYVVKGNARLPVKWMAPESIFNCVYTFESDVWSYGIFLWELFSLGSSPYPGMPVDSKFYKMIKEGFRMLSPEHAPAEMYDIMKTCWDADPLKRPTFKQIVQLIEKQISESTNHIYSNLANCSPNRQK
T3 sequence (P11362 458-765 C488A/C584S): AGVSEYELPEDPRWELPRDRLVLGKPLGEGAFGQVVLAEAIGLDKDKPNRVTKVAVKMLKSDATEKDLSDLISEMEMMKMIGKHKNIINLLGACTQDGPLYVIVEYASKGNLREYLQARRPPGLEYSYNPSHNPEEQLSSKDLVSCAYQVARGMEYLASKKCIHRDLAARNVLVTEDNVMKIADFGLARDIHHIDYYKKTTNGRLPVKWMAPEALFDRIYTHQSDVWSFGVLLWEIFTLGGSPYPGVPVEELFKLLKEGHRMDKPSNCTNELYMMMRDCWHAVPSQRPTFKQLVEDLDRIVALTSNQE
T8 sequence (P15056 whole entry): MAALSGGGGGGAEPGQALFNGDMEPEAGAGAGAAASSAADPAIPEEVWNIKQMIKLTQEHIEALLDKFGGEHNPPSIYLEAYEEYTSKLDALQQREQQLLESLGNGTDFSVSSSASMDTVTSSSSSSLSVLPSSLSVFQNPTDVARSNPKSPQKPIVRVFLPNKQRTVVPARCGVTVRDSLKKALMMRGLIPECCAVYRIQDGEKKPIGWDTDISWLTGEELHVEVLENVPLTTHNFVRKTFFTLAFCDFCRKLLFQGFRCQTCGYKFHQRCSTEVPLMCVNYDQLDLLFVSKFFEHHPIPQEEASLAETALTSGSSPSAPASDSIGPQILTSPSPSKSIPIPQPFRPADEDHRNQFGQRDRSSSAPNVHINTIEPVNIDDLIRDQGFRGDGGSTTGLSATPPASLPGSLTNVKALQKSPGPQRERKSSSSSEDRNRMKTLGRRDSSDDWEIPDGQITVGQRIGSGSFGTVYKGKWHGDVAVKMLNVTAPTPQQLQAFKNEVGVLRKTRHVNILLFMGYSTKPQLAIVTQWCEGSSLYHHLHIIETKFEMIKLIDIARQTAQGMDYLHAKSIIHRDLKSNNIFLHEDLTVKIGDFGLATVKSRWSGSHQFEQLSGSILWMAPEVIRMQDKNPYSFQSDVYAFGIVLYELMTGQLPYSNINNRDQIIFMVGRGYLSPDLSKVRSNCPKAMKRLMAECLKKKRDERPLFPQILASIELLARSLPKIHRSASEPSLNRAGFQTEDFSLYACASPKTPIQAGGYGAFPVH

Row | IC50 (B-Raf V600E) [µM] | IC50 (Stk6) [µM] | IC50 (FGFR1) [µM] | IC50 (c-Raf-1) [µM] | IC50 (Src) [µM] | SMILES | also measured
1 | – | ≤ 10 | – | – | – | COc1ccccc1Cc1c[nH]c2ncccc12 [Compound P-0406] | –
2 | – | ≤ 10 | – | – | – | COc1cccc(-c2cnc3[nH]cc(Sc4cccs4)c3c2)c1 [Compound P-0417] | –
3 | – | ≤ 10 | ≤ 10 | – | – | Cc1ccc(S(=O)(=O)Nc2ccc(Cc3c[nH]c4ncccc34)cc2)cc1 [Compound P-0426] | –
4 | ≤ 10 | ≤ 10 | – | – | – | Cc1ccccc1-c1ccnc2[nH]cc(Sc3cccs3)c12 [Compound P-0441] | –
5 | – | ≤ 10 | – | – | – | c1coc(-c2ccnc3[nH]ccc23)c1 [Compound P-0445] | –
6 | – | ≤ 10 | – | – | – | O=C(c1ccc(NCC2CCCCC2)nc1)c1c[nH]c2ncccc12 [Compound P-0471] | –
7 | – | ≤ 10 | ≤ 10 | – | – | Clc1ccnc2[nH]cc(Sc3cccs3)c12 [Compound P-0489] | –
8 | – | ≤ 10 | – | – | – | Cn1nc(C(C)(C)C)cc1C(=O)c1c[nH]c2nccc(-c3cccc(/C=C/C(=O)O)c3)c12 [Compound P-0546] | –
9 | ≤ 10 | – | ≤ 10 | ≤ 10 | ≤ 10 | CCCS(=O)(=O)Nc1ccc(F)c(C(=O)c2c[nH]c3ncc(-c4cccc(N(C)C)c4)cc23)c1F [Compound P-0876, Propane-1-sulfonic acid {3-[5-(3-dimethylamino-phenyl)-1H-pyrrolo[2,3-b]pyridine-3-carbonyl]-2,4-difluoro-phenyl}-amide] | IC50 (Fms): ≤ 10 µM; IC50 (Jnk1): ≤ 10 µM; IC50 (Kit): ≤ 10 µM; IC50 (B-Raf): ≤ 10 µM
10 | ≤ 10 | – | ≤ 10 | ≤ 10 | ≤ 10 | CCCS(=O)(=O)Nc1ccc(F)c(C(=O)c2c[nH]c3ncc(-c4ccc(OC)cc4)cc23)c1F [Compound P-0877, Propane-1-sulfonic acid {2,4-difluoro-3-[5-(4-methoxy-phenyl)-1H-pyrrolo[2,3-b]pyridine-3-carbonyl]-phenyl}-amide] | IC50 (Kit): ≤ 10 µM; IC50 (B-Raf): ≤ 10 µM
11 | ≤ 10 | – | ≤ 10 | ≤ 10 | ≤ 10 | CCCS(=O)(=O)Nc1ccc(F)c(C(=O)c2c[nH]c3ncc(F)cc23)c1F [Compound P-0907, Propane-1-sulfonic acid [2,4-difluoro-3-(5-fluoro-1H-pyrrolo[2,3-b]pyridine-3-carbonyl)-phenyl]-amide] | IC50 (Kit): ≤ 10 µM; IC50 (B-Raf): ≤ 10 µM
12 | ≤ 10 | – | ≤ 10 | ≤ 10 | ≤ 10 | CN(C)S(=O)(=O)Nc1ccc(F)c(C(=O)c2c[nH]c3ncccc23)c1F [Compound P-0950, Dimethylamine-1-sulfonic acid [3-(1H-pyrrolo[2,3-b]pyridine-3-carbonyl)-2,4-difluoro-phenyl]-amide] | –
13 | ≤ 10 | – | ≤ 10 | ≤ 10 | ≤ 10 | CCCS(=O)(=O)Nc1cccc(C(=O)c2c[nH]c3ncc(-c4cccnc4)cc23)c1F [Compound P-1251, Propane-1-sulfonic acid [2-fluoro-3-(5-pyridin-3-yl-1H-pyrrolo[2,3-b]pyridine-3-carbonyl)-phenyl]-amide] | IC50 (Fms): ≤ 10 µM; IC50 (Jnk1): ≤ 10 µM; IC50 (Kit): ≤ 10 µM; IC50 (Flt1): ≤ 10 µM; IC50 (B-Raf): ≤ 10 µM
14 | ≤ 10 | – | ≤ 10 | ≤ 10 | ≤ 10 | CCCS(=O)(=O)Nc1ccc(F)c(C(=O)c2c[nH]c3ncc(OCCN(CC)CC)cc23)c1F [Compound P-1254, Propane-1-sulfonic acid {3-[5-(2-diethylamino-ethoxy)-1H-pyrrolo[2,3-b]pyridine-3-carbonyl]-2,4-difluoro-phenyl}-amide] | IC50 (Kit): ≤ 10 µM; IC50 (B-Raf): ≤ 10 µM
15 | ≤ 10 | – | ≤ 10 | ≤ 10 | ≤ 10 | CN(C)S(=O)(=O)Nc1ccc(F)c(C(=O)c2c[nH]c3ncc(Cl)cc23)c1F [Compound P-1258, Dimethylamine-1-sulfonic acid [3-(5-chloro-1H-pyrrolo[2,3-b]pyridine-3-carbonyl)-2,4-difluorophenyl]-amide] | IC50 (B-Raf): ≤ 10 µM
16 | ≤ 10 | – | ≤ 10 | ≤ 10 | ≤ 10 | CCCCS(=O)(=O)Nc1ccc(F)c(C(=O)c2c[nH]c3ncc(Cl)cc23)c1F [Compound P-1265, Butane-1-sulfonic acid [3-(5-chloro-1H-pyrrolo[2,3-b]pyridine-3-carbonyl)-2,4-difluoro-phenyl]-amide] | IC50 (Fms): ≤ 10 µM; IC50 (B-Raf): ≤ 10 µM
17 | – | – | ≤ 10 | ≤ 10 | ≤ 10 | COc1cccc(C(=O)c2c[nH]c3ncc(-c4ccccc4)cc23)c1F [Compound P-1338, (2-Fluoro-3-methoxy-phenyl)-(5-phenyl-1H-pyrrolo[2,3-b]pyridin-3-yl)-methanone] | IC50 (Fms): ≤ 10 µM; IC50 (Jnk1): ≤ 10 µM; IC50 (Kit): ≤ 10 µM; IC50 (B-Raf): ≤ 10 µM
18 | ≤ 10 | – | ≤ 10 | – | ≤ 10 | CCCC(=O)Nc1ccc(F)c(C(O)c2c[nH]c3ncc(-c4cccnc4)cc23)c1F (stereo not drawn) [Compound P-1366] | IC50 (Fms): ≤ 10 µM; IC50 (Jnk1): ≤ 10 µM; IC50 (Kit): ≤ 10 µM; IC50 (Flt1): ≤ 10 µM
19 | ≤ 10 | – | ≤ 10 | ≤ 10 | ≤ 10 | O=S(=O)(Nc1ccc(F)c(Cc2c[nH]c3ncc(-c4cccnc4)cc23)c1F)c1ccccc1 [Compound P-1398] | –
20 | ≤ 10 | – | ≤ 10 | ≤ 10 | ≤ 10 | COC(=O)Nc1ccc(F)c(C(=O)c2c[nH]c3ncc(Br)cc23)c1F [Compound P-1448] | IC50 (Fms): ≤ 10 µM

Further lines, the compound ahead of its results:

Row | SMILES | IC50 (B-Raf V600E) [µM] | IC50 (Stk6) [µM] | IC50 (FGFR1) [µM] | IC50 (c-Raf-1) [µM] | IC50 (Src) [µM] | also measured
21 | CN(c1ccccc1)c1ccnc2[nH]ccc12 [Compound P-0118] | ≤ 10 | ≤ 10 | – | – | – | –
22 | Cc1cccc(N(C)c2ccnc3[nH]ccc23)c1 [Compound P-0155] | – | ≤ 10 | – | – | – | –
23 | COc1cccc(-c2ccnc3[nH]cc(Sc4cccs4)c23)c1 [Compound P-0160] | ≤ 10 | ≤ 10 | – | – | – | –
24 | CC(C)CNc1ccc(C(O)c2c[nH]c3ncccc23)cn1 (stereo not drawn) [Compound P-0185] | ≤ 10 | ≤ 10 | – | – | – | –
25 | Cc1ccsc1Cc1c[nH]c2ncccc12 [Compound P-0191] | ≤ 10 | ≤ 10 | – | – | – | –
26 | Brc1c[nH]c2ncccc12 [Compound P-0201] | – | ≤ 10 | – | – | – | –
27 | COc1cccc(NC(=S)N2CCC(C(=O)c3c[nH]c4ncccc34)CC2)c1 [Compound P-0208] | ≤ 10 | ≤ 10 | – | – | – | –
28 | c1ccc(Nc2c[nH]c3ncccc23)cc1 [Compound P-0221, N-phenyl-1H-pyrrolo[2,3-b]pyridin-3-amine] | – | ≤ 10 | – | – | – | –
29 | CC(C)CNc1ccc(C(=O)c2c[nH]c3ncccc23)cn1 [Compound P-0251] | – | ≤ 10 | – | – | – | –
30 | O=C1c2ccccc2C(=O)N1Cc1ccc(-c2cnc3[nH]ccc3c2)cc1 [Compound P-0281] | – | ≤ 10 | – | – | – | –
31 | FC(F)(F)c1cccc(-c2ccnc3[nH]cc(Sc4ccccn4)c23)c1 [Compound P-0290] | – | ≤ 10 | – | – | – | –
32 | O=C(c1ccc(Nc2cccc(OCc3ccccc3)c2)nc1)c1c[nH]c2ncccc12 [Compound P-0355] | ≤ 10 | ≤ 10 | – | – | – | –
33 | N#Cc1ccnc2[nH]cc(Sc3cccs3)c12 [Compound P-0370] | – | ≤ 10 | – | – | – | –
34 | c1cc2cc(-c3ccoc3)cnc2[nH]1 [Compound P-0372] | – | ≤ 10 | – | – | – | –
35 | O=C(c1c[nH]c2ncccc12)C1CCCCC1 [Compound P-0407] | – | ≤ 10 | – | – | – | –
